Experiments:
HIV 115-mer [1] = test: Post-amplification sterilization, isopsoralen present during amplification (Example 55); assay type: biochemical; details: AMDMIP 400 μg/ml, 30 cycles
Source text: For the purposes of this determination, the steps of the following experiment include (see FIG. 42): a) preparing template, b) providing template, c) providing isopsoralen, d) providing PCR reagents, e) providing polymerase, f) mixing isopsoralen, PCR reagents, template, and polymerase to initiate PCR, g) cycling to provide PCR product, h) irradiating, i) carrying over of PCR product into new tubes at specific copy numbers, and j) amplifying in a subsequent PCR.
Step a): Template Preparation. HIV 115-mer was used as template.
Step b) Providing Template. For the reaction, template (equivalent to approximately 107 copies) in buffer was provided for the reaction vessel. Step c) Providing Isopsoralen. AMDMIP (400 μg/ml) was provided as the isopsoralen. This is a higher concentration of AMDMIP than used in the previous example.
Step d), e), f) and g). PCR reagents and polymerase were provided, mixed and cycled as described above. This time, however, isopsoralen is part of the pre-amplification mixture.
Step h) Irradiation. Irradiation was performed on the CE-III device for 15 minutes at 25° C.
Step i) Carrying over of PCR product. Aliquots of PCR product were added into six new reaction tubes—two tubes for each dilution. Dilutions to yield 10^7, 10^5 and 10^3 copies were made. […]

[2] = tested on: Molt-4 human genomic DNA (human beta globin gene); test: Sterilization of genomic target before PCR (beta globin 174 bp); assay type: biochemical
Protocol: Four samples containing 1 μg of Molt-4 human genomic DNA target were prepared for PCR with primers KM 29 (5′-[…]) and HRI-12 (5′-[…]). These primers give a 174 bp product within the human beta globin gene. All four samples contained AMDMIP at 100 μg/ml, and were irradiated for 0, 5, 10 or 15 minutes prior to PCR amplification. […] Amplification were carried out in 1×Taq buffer (50 mM KCl, 10 mM Tris pH 8.5, 2.5 mM MgCl2, 200 μg/ml gelatin), 175 μM each dNTP, 20 μM primer with 2.5 units of Taq polymerase and 100 μg/ml AMDMIP present during amplification. PCR was carried out for 30 cycles; one cycle=30 sec at 94° C. (denaturing), 30 sec at 55° C. (primer annealing), and 60 sec at 72° C. (extension). α-[…] was used as an internal label. After amplification, the samples were analyzed for product by PAGE followed by autoradiography.

HIV 115-mer [3] = test: Crosslinkable Oligonucleotide Probe Analysis (COP) after sterilization; assay type: biochemical
Protocol: Preparation of Samples: The HIV 115-mer system with primers SK-38/SK-39 was used for the experiment (see FIG. 36, “HIV Oligonucleotide System”). Two types of starting template were used: previously amplified 115-mer or genomic DNA, isolated from an individual known to be infected with HIV (MACS sample). For previously amplified 115-mer between 10^5 and 10^6 copies were used for starting template. For the genomic (MACS) sample, approximately 1 μg (3×10^5 copies) of genomic DNA were used. Two PCR samples were prepared for each type of template then amplification was carried out for either 20 or 30 cycles. One of the two PCR samples contained AMDMIP at 200 μg/ml while the other was AMDMIP free. Following amplification, the AMDMIP containing samples were divided and half were irradiated. Analysis (OH or COP) was then done on the three samples from each set (AMDMIP free, AMDMIP unirradiated, and AMDMIP irradiated) for each cycle number. The AMDMIP free samples served as control, the AMDMIP unirradiated sampes adressed the effect of non-covalently bound AMDMIP on detection, and AMDMIP irradiated samples addressed the effect of covalently bound AMDMIP on detection.
COP and OH assays were performed a follows. 10 μl of the PCR reaction mixture was added to 3.3 μl of “probe mix” [5′-labelled SK-19 (normal or monoadducted) at 10^−8 M containing EDTA and an appropriate salt mixtures], overlaid with 30-40 μl of light mineral oil, then heated to 95-100° C. for 5 minutes. For COP, the hybridization mixture as placed in the PTI device at 56° C. and irradiated for 15 minutes. Following this, loading dyes (containing urea or formamide) were added, the sample heated to 95-100° C. for 5 minutes, quick chilled on wet ice, then loaded on a denaturing PAGE gel followed by electrophoresis under denaturing conditions. For OH reactions, the hybridization mixture was incubated at 56° C. for 30 minutes, loading dyes added, and aliquots loaded directly into a native PAGE gel followed by electrophoresis under native conditions. 1. Samples 1-6 contain previously amplified 115-mer that was re-amplified either 20 (samples 1,3,5) or 30 (Samples 2,4,6) cycles then detected by COP. Samples 1 & 2 are controls (without AMDMIP); samples 3 and 4 are (with AMDMIP and with light) sterilized samples; samples 5 & 6 are (with AMDMIP but without light) controls. The bands corresponding to amplified 115-mer crosslinked to labelled 41-mer probe (SK-19 MA) are the upper bands in FIG. 46. Samples 11-16 are the same series except the MACS sample was used as template.

HIV 115-mer [4] = test: Effect of unirradiated isopsoralen on PCR; assay type: biochemical; details: for Counts (CPM) of PCR product: 30 cycles, 0 μg/ml gave 42200
Protocol: To systematically evaluate the effect of the presence of increasing concentrations of isopsoralen on PCR, AMDMIP (0, 100, 200, 400 μg/ml) was added to 107 copies of HIV 115-mer as template. PCR was then carried out for 30 cycles in the presence of α-^32P-dCTP. The PCR product was run on denaturing polyacrylamide gel and autoradiographed. The bands were thereafter cut and counted.

E. coli polymerase I = details: nick-translating a double-stranded template; cited from earlier work

## Cc1oc2ccc3c(C)cc(=O)oc3c2c1CN [AMDMIP, 4′-Aminomethyl-4,5′-dimethylisopsoralen]
HIV 115-mer [1]; CE-III 15 minutes at 25° C., 10^7, 10^5, 10^3 copies carried over
  post-amplification sterilization: complete, post-amplification sterilization
HIV 115-mer [1]
  reamplification of carryover with AMDMIP, not light-treated: show amplification
[2]; 100 μg/ml (data not shown)
  impact of unirradiated AMDMIP on amplification: no significant impact on amplification
[2]; AMDMIP 100 μg/ml, irradiated 0, 5, 10 or 15 minutes before PCR, 30 cycles
  amplification of genomic target irradiated in presence of AMDMIP: no amplification of the sterilized genomic target
HIV 115-mer [3]; sample 3: previously amplified 115-mer, 20 cycles, AMDMIP 200 μg/ml with light
  COP hybrid band CPM: 1944 CPM
HIV 115-mer [3]; sample 3: previously amplified 115-mer, 20 cycles, AMDMIP with light
  COP hybrid band CPM as % of AMDMIP-free control: 62%
HIV 115-mer [3]; sample 4: previously amplified 115-mer, 30 cycles, AMDMIP 200 μg/ml with light
  COP hybrid band CPM: 36452 CPM
HIV 115-mer [3]; sample 4: previously amplified 115-mer, 30 cycles, AMDMIP with light
  COP hybrid band CPM as % of AMDMIP-free control: 83%
HIV 115-mer [3]; sample 5: previously amplified 115-mer, 20 cycles, AMDMIP 200 μg/ml without light
  COP hybrid band CPM: 4480 CPM
HIV 115-mer [3]; sample 5: previously amplified 115-mer, 20 cycles, AMDMIP without light
  COP hybrid band CPM as % of AMDMIP-free control: 144%
HIV 115-mer [3]; sample 6: previously amplified 115-mer, 30 cycles, AMDMIP 200 μg/ml without light
  COP hybrid band CPM: 39596 CPM
HIV 115-mer [3]; sample 6: previously amplified 115-mer, 30 cycles, AMDMIP without light
  COP hybrid band CPM as % of AMDMIP-free control: 90%
HIV 115-mer [3]; sample 13: MACS genomic DNA, 20 cycles, AMDMIP 200 μg/ml with light
  COP hybrid band CPM: 460 CPM
HIV 115-mer [3]; sample 13: MACS genomic DNA, 20 cycles, AMDMIP with light
  COP hybrid band CPM as % of AMDMIP-free control: 52%
HIV 115-mer [3]; sample 14: MACS genomic DNA, 30 cycles, AMDMIP 200 μg/ml with light
  COP hybrid band CPM: 41777 CPM
HIV 115-mer [3]; sample 14: MACS genomic DNA, 30 cycles, AMDMIP with light
  COP hybrid band CPM as % of AMDMIP-free control: 78%
HIV 115-mer [3]; sample 15: MACS genomic DNA, 20 cycles, AMDMIP 200 μg/ml without light
  COP hybrid band CPM: 464 CPM
HIV 115-mer [3]; sample 15: MACS genomic DNA, 20 cycles, AMDMIP without light
  COP hybrid band CPM as % of AMDMIP-free control: 53%
HIV 115-mer [3]; sample 16: MACS genomic DNA, 30 cycles, AMDMIP 200 μg/ml without light
  COP hybrid band CPM: 35176 CPM
HIV 115-mer [3]; sample 16: MACS genomic DNA, 30 cycles, AMDMIP without light
  COP hybrid band CPM as % of AMDMIP-free control: 66%
HIV 115-mer [4]; HIV 115-mer system
  concentration compatible with the PCR system: up to 400 μg/ml
HIV 115-mer [4]; unirradiated AMDMIP 100 μg/ml
  Counts (CPM) of PCR product: 77200 CPM
HIV 115-mer [4]; unirradiated AMDMIP 200 μg/ml
  Counts (CPM) of PCR product: 77500 CPM
HIV 115-mer [4]; unirradiated AMDMIP 400 μg/ml
  Counts (CPM) of PCR product: 69400 CPM

## Cc1cc2occc2c2oc(=O)ccc12 [MIP, 5-Methylisopsoralen]
E. coli polymerase I
  inhibition of polymerase by covalently bound monoadducts: not inhibited

Source: patent US6680025B2, “Device and method for photoactivation” (Cerus Corporation, priority 1989, dated 2004)
